Activity calls are given as the source filed them. No rule for the calls is given here.

Sequence of Chaperone protein DnaK (Escherichia coli (strain K12)) (P0A6Y8 whole entry, looked up): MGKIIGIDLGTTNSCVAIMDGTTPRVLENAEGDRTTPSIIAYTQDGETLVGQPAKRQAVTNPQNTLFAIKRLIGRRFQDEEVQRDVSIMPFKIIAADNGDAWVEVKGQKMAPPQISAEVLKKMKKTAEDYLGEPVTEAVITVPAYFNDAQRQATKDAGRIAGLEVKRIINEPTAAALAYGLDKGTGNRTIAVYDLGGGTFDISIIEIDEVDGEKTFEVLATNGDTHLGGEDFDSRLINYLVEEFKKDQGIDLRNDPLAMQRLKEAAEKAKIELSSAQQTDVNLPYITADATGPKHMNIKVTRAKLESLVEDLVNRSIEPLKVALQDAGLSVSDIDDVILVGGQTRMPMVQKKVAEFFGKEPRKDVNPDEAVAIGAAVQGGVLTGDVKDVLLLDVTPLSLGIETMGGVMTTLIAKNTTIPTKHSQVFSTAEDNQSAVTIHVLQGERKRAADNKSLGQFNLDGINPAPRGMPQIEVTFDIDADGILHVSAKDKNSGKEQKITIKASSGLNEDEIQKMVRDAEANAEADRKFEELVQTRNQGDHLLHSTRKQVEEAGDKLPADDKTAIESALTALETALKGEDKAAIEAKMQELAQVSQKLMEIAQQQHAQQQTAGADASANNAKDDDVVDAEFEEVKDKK

This test concerns the target Chaperone protein DnaK (Escherichia coli (strain K12)) (UniProt P0A6Y8). The test is described as follows: E. coli DnaK SBD ligand binding – biophysical, NMR, chaperone (AID 1033). The conditions noted are these: Purified DnaK SBD.
As to `O=C1COc2ccccc2C(=O)N1`, the Kd is > 4 mM (inactive).

As to `COC1=CC(=O)C[C@@H](C)[C@]12Oc1c(Cl)c(OC)cc(OC)c1C2=O`, the Kd was > 4 mM (inactive).

Regarding `CC1NC(C(=O)O)Cc2c1[nH]c1ccccc21` (stereo unspecified), the Kd is > 4 mM (inactive).

With `Cc1noc(-c2ccccc2)c1CO`, the Kd is > 4 mM (inactive).

As to `Cc1cc(CN2C(=O)c3ccccc3C2=O)on1`, the Kd was > 4 mM (inactive).

As to `NC(=O)c1oc2ccccc2c1N`, the Kd is > 4 mM (inactive).

As for `CC(C)(C)Cc1nc(-c2ccccn2)no1`, the Kd was > 4 mM (inactive).

For `CNC(=O)c1cc(S(=O)(=O)N(C)C)ccc1Cl`, the Kd was > 4 mM (inactive).

Take `COc1cc(OC)c2ccc(=O)oc2c1`: the Kd was > 4 mM (inactive).

Regarding `O=c1c2c(nc3nc(Cc4ccccc4)[nH]n13)CCC2`, the Kd is > 4 mM (inactive).

Consider `CN(C)C(=O)Oc1cccc(-c2nnco2)c1`, for which the Kd was > 4 mM (inactive).

Turning to `CSc1nnc2ccc(-c3cccnc3)nn12`, the Kd was > 4 mM (inactive).

As for `CNc1nnc(CSc2nc(C)cc(C)n2)s1`, the Kd is > 4 mM (inactive).

As for `CC(=O)Nc1nc(C)nc(-c2ccccc2)c1C(C)=O`, the Kd is > 4 mM (inactive).

With `C=CC(C1=CC(=O)C=CC1=O)c1ccccc1` (stereo unspecified), the Kd is > 4 mM (inactive).

For `C(=C\c1ccccc1)/C=N/n1cnnc1`, the Kd was > 4 mM (inactive).

As for `Cc1occc1C(=O)Nc1nccs1`, the Kd was > 4 mM (inactive).

As for `Cc1cc(C)cc(C(=O)N2CCC(C(N)=O)CC2)c1`, the Kd is > 4 mM (inactive).

As to `CC(=O)O[C@@H]1CC2C(C)(C)[C@@H](O)CC[C@]2(C)C2CC[C@@]3(C)[C@H](c4ccoc4)OC(=O)[C@H]4O[C@]43[C@@]21C` (stereo partly specified), the Kd was > 4 mM (inactive).

As to `CC1(C)Cc2nc3n[nH]c(N)c3cc2CO1`, the Kd is > 4 mM (inactive).

For the molecule `O=S(=O)(NCc1ccco1)c1cccc2cccnc12`, the Kd is > 4 mM (inactive).

With `CCC(CCC(C)[C@H]1CCC2C3CC=C4C[C@@H](O)CC[C@]4(C)C3CC[C@@]21C)C(C)C` (stereo partly specified), the Kd was > 4 mM (inactive).

With `Nc1ccc(Cc2ccncc2)cc1`, the Kd was > 4 mM (inactive).

For `NC1=NC(=O)/C(=C\c2cccc(C(=O)O)c2)S1`, the Kd was > 4 mM (inactive).

In the case of `Cn1cccc1C=C1C(=O)NC(=S)NC1=O`, the Kd is > 4 mM (inactive).

On to `Cc1nnc(-n2cnc3ccccc32)c2ccccc12`, for which the Kd was > 4 mM (inactive).

Regarding `c1ccc(CSc2ncccn2)cc1`, the Kd was > 4 mM (inactive).

Consider `C=CC(C)(O)CC/C=C(\C)CCC=C(C)C` (stereo unspecified), for which the Kd was > 4 mM (inactive).

As to `O=C(O)C1CSC(c2ccco2)N1` (stereo unspecified), the Kd is > 4 mM (inactive).

With `O=C(O)/C=C(\CC(=O)O)C(=O)O`, the Kd was > 4 mM (inactive).

As for `COc1ccc(-c2cc(=O)c3c(O)cc(O)c(-c4cc(-c5cc(=O)c6c(O)cc(O)cc6o5)ccc4OC)c3o2)cc1`, the Kd was > 4 mM (inactive).

For `O=P(c1ccccc1)(c1ccccc1)C1CCOCC1`, the Kd is > 4 mM (inactive).

For `NCc1ccc2c(c1)CCO2`, the Kd was > 4 mM (inactive).

On to `Cc1ccc(C2NS(=O)(=O)N=C2N)cc1` (stereo unspecified), for which the Kd was > 4 mM (inactive).

Regarding `COc1cc2c(cc1OC)C1Cc3ccc(OC)c(OC)c3CN1CC2` (stereo unspecified), the Kd was > 4 mM (inactive).

In the case of `COc1ccc2c(c1)=C(c1sc(N)nc1O)C(=O)N=2`, the Kd is > 4 mM (inactive).

Consider `Cc1ccc(C(=O)n2cnnc2N)cc1C`, for which the Kd is > 4 mM (inactive).

`CC(=O)Cc1nsc(NC(=O)c2ccc(C)cc2)n1`: the Kd was > 4 mM (inactive).

For the molecule `CCc1ccc(C(=O)N2CCCC2)s1`, the Kd is > 4 mM (inactive).

Take `CCC(C)C(=O)O[C@H]1[C@H](O)C2C(CN3CC(C)CCC3[C@@]2(C)O)C2C[C@]34O[C@]5(O)C(OC(=O)C(C)(O)C(C)O)CC[C@@]3(C)C5C(OC(C)=O)[C@@H](OC(C)=O)C4[C@@]21O` (stereo partly specified): the Kd was > 4 mM (inactive).

Regarding `Cc1cc(=O)c2c(O)cc(O)c(C)c2o1`, the Kd was > 4 mM (inactive).

Take `O=C(Nc1cnccn1)c1cccc(C(F)(F)F)c1`: the Kd is > 4 mM (inactive).

On to `CC1=C(C(=O)Nc2ccccc2)SCCO1`, for which the Kd was > 4 mM (inactive).

Consider `Cc1cc(O)cc(=O)n1CCCC(=O)O`, for which the Kd is > 4 mM (inactive).

For `O=C(O)CC12CC3CC(CC(O)(C3)C1)C2`, the Kd is > 4 mM (inactive).

With `O=C(O)/C=C/C=C/c1ccccc1`, the Kd is > 4 mM (inactive).

As to `COc1ccc(-c2ccc(OC)cc2C(=O)O)cc1`, the Kd was > 4 mM (inactive).

Take `NCc1ccc(-c2csnn2)cc1`: the Kd was > 4 mM (inactive).

On to `c1ccc(Cc2nnc3sc(-c4ccccn4)nn23)cc1`, for which the Kd was > 4 mM (inactive).

As to `NC(=O)CSc1nc2ncnc(N)c2[nH]1`, the Kd was > 4 mM (inactive).

Regarding `COc1ccc2cc1Oc1ccc(cc1)C[C@H]1c3cc(c(OC)cc3CCN1C)Oc1c(OC)c(OC)cc3c1[C@H](C2)N(C)CC3`, the Kd is > 4 mM (inactive).

Consider `Cc1ccccc1NC(=O)/C=C\C(N)=O`, for which the Kd is > 4 mM (inactive).

With `O=C(NN1CCOCC1)c1ccccc1F`, the Kd was > 4 mM (inactive).

Regarding `O=C1OCCC1Sc1nc2ccccc2c(=O)[nH]1` (stereo unspecified), the Kd was > 4 mM (inactive).

Turning to `COC(=O)C[C@H]1C2(C)CC34OC5(C)O[C@@]6([C@H](OC)C(OC(=O)C(C)C)[C@]7(C)C(/C(=C(/OC)C(C)C)C(=O)O[C@H]7c7ccoc7)[C@@]6(O5)[C@H](OC)[C@@]3(OC)C2OC(C)=O)[C@]14C` (stereo partly specified), the Kd is > 4 mM (inactive).

In the case of `Cn1cccc1C(=O)NS(=O)(=O)c1ccccc1Cl`, the Kd was > 4 mM (inactive).

Take `O=C(O)C1=C[C@@H](O)[C@@H](O)[C@H](O)C1`: the Kd is > 4 mM (inactive).

On to `Nc1cc(=O)[nH]c(=O)n1Cc1ccco1`, for which the Kd was > 4 mM (inactive).

As for `CC(=O)Nc1ccc(S(=O)(=O)NC2=NCCS2)cc1`, the Kd was > 4 mM (inactive).

Consider `CC(=O)OCC(=O)[C@@]1(O)CCC2C3CC[C@@H]4C[C@H](O)CC[C@]4(C)C3C(=O)C[C@@]21C` (stereo partly specified), for which the Kd was > 4 mM (inactive).

In the case of `COCC(=O)/C=C1\Sc2ccccc2N1C`, the Kd is > 4 mM (inactive).

`Nc1ncnc2c1ncn2CCN1CCCCC1`: the Kd is > 4 mM (inactive).

Turning to `O=C(c1ccco1)N1CCN(Cc2cccc(F)c2)CC1`, the Kd is > 4 mM (inactive).

With `O=C(O)CN(CCCc1ccccc1)CC(=O)O`, the Kd was > 4 mM (inactive).

As for `CCC(=O)Nc1ccccc1NC(C)=O`, the Kd was > 4 mM (inactive).

Consider `Cc1ccc2cc(CO)ccc2n1`, for which the Kd is > 4 mM (inactive).

Take `Nc1csc(C(=O)O)c1`: the Kd is > 4 mM (inactive).

Turning to `COc1ccc(S(=O)(=O)N2CCC(C(N)=O)CC2)cc1`, the Kd was > 4 mM (inactive).

As to `O=C1CCCc2c(O)cccc21`, the Kd is > 4 mM (inactive).

`NC(CC(=O)O)C(=O)Nc1ccc(Cl)cc1` (stereo unspecified): the Kd is > 4 mM (inactive).

Take `O=C(O)CC(O)c1nc2ccccc2[nH]1` (stereo unspecified): the Kd is > 4 mM (inactive).

Values taken from PubChem BioAssay AID1033 (Sanford-Burnham Center for Chemical Genomics, 2008).
